Assay results from ChEMBL document CHEMBL3734677, “EVALUATION OF AROMATIC 6-SUBSTITUTED THIENOPYRIMIDINES AS SCAFFOLDS AGAINST PARASITES THAT CAUSE TRYPANOSOMIASIS, LEISHMANIASIS, AND MALARIA” (Medchemcomm, 2015).

Key:
[1] = tested on: Leishmania major; assay: Antiparasitic activity against Leishmania major amastigotes; format: functional, organism-based
[2] = tested on: Plasmodium falciparum; assay: Antiparasitic activity against Plasmodium falciparum D6; format: functional, organism-based
[3] = Selectivity ratio, ratio of EC50 for Plasmodium falciparum C235 to EC50 for Plasmodium falciparum D6; format: functional
[4] = tested on: Leishmania major; assay: Antiparasitic activity against Leishmania major promastigotes; format: functional, organism-based
[5] = tested on: Trypanosoma cruzi; assay: Antiparasitic activity against Trypanosoma cruzi; format: functional, organism-based
[6] = tested on: HepG2; assay: Cytotoxicity against human HepG2 cells by MTT assay; format: cell-based; settings: hepg2
[7] = tested on: Trypanosoma brucei; assay: Antiparasitic activity against Trypanosoma brucei after 48 hrs by cytometry; format: functional, organism-based
[8] = tested on: Trypanosoma cruzi; assay: Antiparasitic activity against Trypanosoma cruzi at 10 uM; format: functional
[9] = Selectivity ratio, ratio of EC50 for Plasmodium falciparum W2 to EC50 for Plasmodium falciparum D6; format: functional
[10] = tested on: Trypanosoma brucei; assay: Antiparasitic activity against Trypanosoma brucei at 5 uM after 48 hrs by cytometry; format: functional
[11] = Leishmania major, read-out: EC50
[12] = Plasmodium falciparum, D6, read-out: EC50

| Compound | EC50 [1, 11] | EC50 [2, 12] | Ratio EC50 [3] | EC50 [4, 11] | EC50 [5] | Activity [6] | EC50 [7] | inhibition at 10 µM [8] | Ratio EC50 [9] | inhibition at 5 µM [10] | EC50 [1] | EC50 [2] | EC50 [4] |
| --- | --- | --- | --- | --- | --- | --- | --- | --- | --- | --- | --- | --- | --- |
| Fc1cccc(COc2ccc(Nc3ncnc4cc(-c5ccc(CN6CCOCC6)cc5)sc34)cc2Cl)c1 | > 15000 nM | 27 nM | < 3 | 220 nM | > 50000 nM | Non-toxic | 1100 nM | – | – | – | – | – | – |
| O=C(c1cccc(-c2cc3c(Nc4ccc(OCc5cccc(F)c5)c(Cl)c4)ncnc3s2)c1)N1CCCCC1 | > 15000 nM | 2110 nM | – | > 20000 nM | > 50000 nM | Non-toxic | 330 nM | – | – | – | – | – | – |
| CC(C)(C)OCc1ccc(-c2cc3ncnc(Nc4ccc(OCc5cccc(F)c5)c(Cl)c4)c3s2)cc1 | > 15000 nM | 1650 nM | – | > 20000 nM | 30000 nM | Non-toxic | 890 nM | – | – | – | – | – | – |
| Fc1cccc(COc2ccc(Nc3ncnc4cc(-c5ccccc5)sc34)cc2Cl)c1 | > 15000 nM | 2970 nM | – | 8140 nM | – | Non-toxic | 2800 nM | 0% | – | – | – | – | – |
| Fc1cccc(COc2ccc(Nc3ncnc4sc(-c5ccccc5Oc5ccccc5)cc34)cc2Cl)c1 | > 15000 nM | 10800 nM | – | > 20000 nM | – | Non-toxic | 1200 nM | 45% | – | – | – | – | – |
| Cc1cc(-c2ccc3ncnc(Nc4ccc(OCc5cccc(F)c5)c(Cl)c4)c3c2)cnc1N1CCOCC1 | 1140 nM | 260 nM | < 3 | > 20000 nM | – | Non-toxic | 1000 nM | 49% | < 3 | – | – | – | – |
| Oc1ccc(-c2cc3ncnc(Nc4ccc(OCc5cccc(F)c5)c(Cl)c4)c3s2)cc1 | 1580 nM | 440 nM | – | > 20000 nM | 750 nM | Non-toxic | 2200 nM | – | – | – | – | – | – |
| Fc1cccc(COc2ccc(Nc3ncnc4ccc(-c5cc6ccccc6s5)cc34)cc2Cl)c1 | > 15000 nM | 910 nM | – | > 20000 nM | > 50000 nM | Non-toxic | 6000 nM | – | – | – | – | – | – |
| Fc1cccc(COc2ccc(Nc3ncnc4ccc(-c5ccccc5Oc5ccccc5)cc34)cc2Cl)c1 | > 15000 nM | 5790 nM | – | 6860 nM | – | Non-toxic | – | – | – | – | – | – | – |
| CS(=O)(=O)c1cccc(-c2cc3c(Nc4ccc(OCc5cccc(F)c5)c(Cl)c4)ncnc3s2)c1 | > 15000 nM | 520 nM | < 3 | 11800 nM | 2400 nM | Non-toxic | 1300 nM | – | < 3 | – | – | – | – |
| CC(C)(C)NS(=O)(=O)c1ccccc1-c1cc2ncnc(Nc3ccc(OCc4cccc(F)c4)c(Cl)c3)c2s1 | 2370 nM | 1070 nM | – | > 20000 nM | 670 nM | Non-toxic | 1200 nM | – | – | – | – | – | – |
| CS(=O)(=O)c1cccc(-c2ccc3ncnc(Nc4ccc(OCc5cccc(F)c5)c(Cl)c4)c3c2)c1 | 4670 nM | 520 nM | < 3 | 3490 nM | 5000 nM | Non-toxic | 3200 nM | – | < 3 | – | – | – | – |
| Fc1cccc(COc2ccc(Nc3ncnc4sc(-c5cc6ccccc6s5)cc34)cc2Cl)c1 | > 3000 nM | > 4000 nM | – | > 3000 nM | – | Non-toxic | 2900 nM | 49% | – | – | – | – | – |
| CC(C)(C)OCc1ccc(-c2cc3c(Nc4ccc(OCc5cccc(F)c5)c(Cl)c4)ncnc3s2)cc1 | 2030 nM | 7790 nM | – | > 20000 nM | – | Non-toxic | 1600 nM | 17% | – | – | – | – | – |
| Fc1cccc(COc2ccc(Nc3ncnc4ccsc34)cc2Cl)c1 | > 15000 nM | 16400 nM | – | 5680 nM | 27000 nM | Non-toxic | – | – | – | 1% | – | – | – |
| CS(=O)(=O)c1cccc(-c2cc3ncnc(Nc4ccc(OCc5cccc(F)c5)c(Cl)c4)c3s2)c1 | > 3000 nM | 650 nM | < 3 | > 3000 nM | 2700 nM | Non-toxic | 1400 nM | – | < 3 | – | – | – | – |
| O=C(c1cccc(-c2ccc3ncnc(Nc4ccc(OCc5cccc(F)c5)c(Cl)c4)c3c2)c1)N1CCCCC1 | > 15000 nM | 510 nM | – | > 3000 nM | > 50000 nM | Non-toxic | – | – | – | – | – | – | – |
| O=C(c1cccc(-c2cc3ncnc(Nc4ccc(OCc5cccc(F)c5)c(Cl)c4)c3s2)c1)N1CCCCC1 | 3100 nM | 1170 nM | – | > 20000 nM | 3200 nM | Non-toxic | – | – | – | 46% | – | – | – |
| Fc1cccc(COc2ccc(Nc3ncnc4cc(-c5cc6ccccc6s5)sc34)cc2Cl)c1 | > 15000 nM | > 15000 nM | – | > 20000 nM | > 50000 nM | Non-toxic | – | – | – | 8% | – | – | – |
| Fc1cccc(COc2ccc(Nc3ncnc4cc(-c5cccc(N6CCOCC6)c5)sc34)cc2Cl)c1 | 5400 nM | 860 nM | – | > 20000 nM | > 50000 nM | Non-toxic | – | – | – | 42% | – | – | – |
| Oc1ccc(-c2ccc3ncnc(Nc4ccc(OCc5cccc(F)c5)c(Cl)c4)c3c2)cc1 | > 15000 nM | > 20000 nM | – | > 20000 nM | > 50000 nM | Non-toxic | 6500 nM | – | – | – | – | – | – |
| Fc1cccc(COc2ccc(Nc3ncnc4ccccc34)cc2Cl)c1 | 12400 nM | 5330 nM | – | 1750 nM | 2400 nM | Non-toxic | 1300 nM | – | – | – | – | – | – |
| Fc1cccc(COc2ccc(Nc3ncnc4sc(-c5cccc(N6CCOCC6)c5)cc34)cc2Cl)c1 | 2600 nM | 520 nM | – | > 20000 nM | 2200 nM | Non-toxic | 400 nM | – | – | – | – | – | – |
| Cc1cc(-c2cc3c(Nc4ccc(OCc5cccc(F)c5)c(Cl)c4)ncnc3s2)cnc1N1CCOCC1 | > 3000 nM | 280 nM | < 3 | > 3000 nM | – | Non-toxic | 420 nM | 29% | < 3 | – | – | – | – |
| CC(C)(C)NS(=O)(=O)c1ccccc1-c1ccc2ncnc(Nc3ccc(OCc4cccc(F)c4)c(Cl)c3)c2c1 | – | – | – | – | 6400 nM | Non-toxic | 4700 nM | – | – | – | ND(Insoluble) | ND(Insoluble) | ND(Insoluble) |
| CC(C)(C)NS(=O)(=O)c1ccccc1-c1cc2c(Nc3ccc(OCc4cccc(F)c4)c(Cl)c3)ncnc2s1 | > 15000 nM | > 15000 nM | – | > 20000 nM | > 50000 nM | Non-toxic | 500 nM | – | – | – | – | – | – |
| Fc1cccc(COc2ccc(Nc3ncnc4cc(-c5ccc(N6CCOCC6)cc5)sc34)cc2Cl)c1 | > 15000 nM | 3100 nM | – | > 20000 nM | – | Non-toxic | 470 nM | 0% | – | – | – | – | – |
| CC(C)(C)OCc1ccc(-c2ccc3ncnc(Nc4ccc(OCc5cccc(F)c5)c(Cl)c4)c3c2)cc1 | 4090 nM | 600 nM | – | > 20000 nM | 2200 nM | Non-toxic | 220 nM | – | – | – | – | – | – |
